The values below come from patent US20060008542A1, “Preparation containing a mixture of picrorrhiza and ginkgo for the relief of disease” (priority 2002, published 2006).

SMILES strings stand for the structures. Where only a bound is given, the exact number is not on record here.

The first data set has as its system neutrophil respiratory burst (PMA-stimulated neutrophils of peripheral blood). As to the kind of experiment: Dihydrorhodamine flow cytometric assay for the effect of plant extracts on neutrophil respiratory burst on peripheral blood. Conditions: Homo sapiens, Neutrophil; apocynin 300 ug/ml, from calibration curve. The class given is cell-based, human. The procedure:
3 Dihydrorhodamine Flow Cytometric Assay for the Effect of Plant Extracts on Neutrophil Respiratory Burst on Peripheral Blood An aliquot (200 μg) of every fraction (obtained by the methods described above) was prepared for assay. The left hand column (Extract number) will be the number used to denote that fraction in subsequent studies and corresponds to the Fraction numbers (“BR0000n”) used above reduced to 1,2, etc., by removal of the “BR00000”. Neutrophils kill organisms they have ingested by exposing them to chemicals known as reactive oxygen species (eg. hydrogen peroxide and hydroxyl ions). These are generated by a process known as the neutrophil respiratory burst. […] Respiratory burst occurs when stimulated neutrophils convert molecular oxygen to oxygen radicals through the activation of NADPH-oxidase. In the dihydrorhodamine (DHR) flow cytometric assay, the respiratory burst is used to produce fluorescent molecules that can be detected by flow cytometry. […] The extent of respiratory burst product can be further quantified using the mean fluorescence intensity of the FL-1 channel (MFI). […] Any background fluorescence (as a further control) is estimated using a tube containing only blood and DHR. […]
(In general: A flow cytometer gives signals particle by particle.)
Broadly, the inhibition is the relative decrease from the control value, in per cent. `COc1cc(C(C)=O)ccc1O` [Apocynin, 4-hydroxy-3-methoxyacetophenone] had an inhibition at 300 µg/mL of 45%.

The data set is the same for the next values; noted with them: Table 4, apocynin alone.
In the case of `COc1cc(C(C)=O)ccc1O` [Apocynin, 4-hydroxy-3-methoxyacetophenone], the “Assay Result” value is 48.

System in another data set: not listed separately
As to the kind of experiment: physchem.
Details: not given
One may read the logP as the decadic logarithm of the partition coefficient of the neutral form, usually between octanol and water. Read a high logP as higher lipophilicity. Compound `CCCCCCCCCCCCCCCCCCCCCCCCCCCCC` [nonacosane] displayed a logP not below 5.
Regarding `OCC1=C[C@@H](O)[C@@H]2C=CO[C@@H](O[C@@H]3O[C@H](CO)[C@@H](O)[C@H](O)[C@H]3O)[C@H]12` [aucubin], the logP is not above -2.
On the same count and under the same terms, as for `CCCCCCCCCCCCCCCCC(O)CCCCCCCCCCCC` (centres unmarked) [13-nonacosanol], the figure is not below 5; as for `CCCCCCCCCCCCCCCCCCCC(O)CCCCCCCCC` (centres unmarked) [10-nonacosanol], not below 5; as for `CCCCCCCCCCCCCCCC(=O)OCC(COC(=O)CCCCCCCCCCCCCCC)OC(=O)CCCCCCCCCCCCCCC` [tripalmitin], not below 5.
Still for that read-out and setting: for `COc1cc(C(C)=O)ccc1O[C@@H]1O[C@H](CO)[C@@H](O)[C@H](O)[C@H]1O` [androsin] the value was -1.2; for `COc1ccc(-c2cc(=O)c3c(O)cc(O)c(-c4cc(-c5cc(=O)c6c(O)cc(O)cc6o5)ccc4OC)c3o2)cc1` [isoginkgetin], not below 5.
The same measure, in the same setting: as for `O=C(/C=C/c1ccc(O)c(O)c1)O[C@H]1[C@@H]2C=CO[C@@H](O[C@@H]3O[C@H](CO)[C@@H](O)[C@H](O)[C@H]3O)[C@@H]2[C@@]2(CO)O[C@@H]12` [verminoside], the figure is not above -2; as for `O=c1cc(-c2ccc(O)c(-c3c(O)cc(O)c4c(=O)cc(-c5ccc(O)cc5)oc34)c2)oc2cc(O)cc(O)c12` [amentoflavone], not below 5; as for `COc1cc(O)c2c(=O)cc(-c3ccc(OC)c(-c4c(O)cc(O)c5c(=O)cc(-c6ccc(O)cc6)oc45)c3)oc2c1` [ginkgetin], not below 5.
In turn, `CC[C@H](/C=C/[C@@H](C)[C@H]1CC[C@H]2[C@@H]3CC=C4C[C@@H](O)CC[C@]4(C)[C@H]3CC[C@]12C)C(C)C` [stigmasterol] showed a logP not below 5.
Still for that read-out and setting: as for `CCCCCCCCCCCCCCCCCC(O)CCCCCCCCC` (centres unmarked) [10-heptacosanol], the figure is not below 5; as for `OC[C@H]1O[C@@H](O[C@@H]2OC=C[C@H]3[C@H](O)[C@@H]4O[C@]4(CO)[C@@H]23)[C@H](O)[C@@H](O)[C@@H]1O` [catalpol], not above -2.
Still for that read-out and setting: as for `COc1ccc(-c2cc(=O)c3c(O)cc(O)cc3o2)cc1-c1c(O)cc(O)c2c(=O)cc(-c3ccc(O)cc3)oc12` [bilobetin], the figure is not below 5; as for `COc1cc(C(C)=O)ccc1O` [Apocynin, 4-hydroxy-3-methoxyacetophenone], 1.6.

System in the next data set: not listed separately
As to the kind of experiment: log P (Partition Ratio between Octanol/Water). Particulars: cucurbitacins present in natural Picrorrhiza kurroa.
Description: By most polar is meant a component (or Component) having log P of −2 or more negative, where P is the Partition Ratio between Octanol/Water.
The Table immediately below lists the cucurbitacins present in natural Picrorrhiza kurroa together with their log P value.
As a reminder, the log P is a log measure of how a compound divides between an organic and an aqueous phase. In the case of `CC(C)(O)/C=C/C(=O)[C@](C)(O)[C@H]1[C@H](O)C[C@@]2(C)[C@@H]3CC=C4[C@@H](C=C(O)C(=O)C4(C)C)[C@]3(C)C(=O)C[C@]12C` [cucurbitacin I], the “log P” value was 2.5 ± 0.5.
In the case of `CC(=O)OC(C)(C)/C=C/C(=O)[C@](C)(O)[C@H]1[C@H](O)C[C@@]2(C)[C@@H]3CC=C4[C@@H](C=C(O)C(=O)C4(C)C)[C@]3(C)C(=O)C[C@]12C` [cucurbitacin E], the “log P” value is given as 3.4 ± 0.6.
For `CC(=O)OC(C)(C)/C=C/C(=O)[C@](C)(O)[C@H]1[C@H](O)C[C@@]2(C)[C@@H]3CC=C4[C@H](C[C@H](O)C(=O)C4(C)C)[C@]3(C)C(=O)C[C@]12C` [cucurbitacin B], the “log P” value is 2.5 ± 0.6.
As to `CC(C)(O)CCC(=O)[C@](C)(O)[C@H]1[C@H](O)C[C@@]2(C)[C@@H]3CC=C4[C@@H](C[C@H](O)C(=O)C4(C)C)[C@]3(C)C(=O)C[C@]12C` [cucurbitacin R], the “log P” value stood at 1.9 ± 0.6.
The same measure, in the same setting: for `CC(C)(O)/C=C/C(=O)[C@](C)(O)[C@H]1[C@H](O)C[C@@]2(C)[C@@H]3CC=C4[C@@H](C[C@H](O)[C@@H](O)C4(C)C)[C@]3(C)C(=O)C[C@]12C` [cucurbitacin F] the value was 1.9 ± 0.6; for `CC(C)(O)/C=C/C(=O)[C@](C)(O)[C@H]1[C@H](O)C[C@@]2(C)[C@@H]3CC=C4[C@@H](C[C@H](O)C(=O)C4(C)C)[C@]3(C)C(=O)C[C@]12C` [cucurbitacin D], 1.7 ± 0.6.
